Values of other authors in paper PMC11954708 (Clinical Pharmacokinetics, 2025).

Legend:
[1] = total body clearance value
[2] = for Positive FE in vivo: Yes/No; for AUC ratio Observed: fed/fasted in vivo
[3] = test system: CYP3A4 or UGT

CL [1] | Positive FE in vivo [2] | AUC ratio Observed [2] | CYP3A4 or UGT substrate? [3] | CL (po) [1] | SMILES
2.7 [50] l/h | Yes | 1.12 |  |  | NC(=O)N1c2ccccc2C=Cc2ccccc21 [Carbamazepine]
84 [52] l/h | Yes |  |  |  | COC(=O)[C@H](c1ccccc1Cl)N1CCc2sccc2C1 [Clopidogrel]
5.28 [51] l/h |  |  | No |  | C[C@H]1O[C@@H](O[C@H]2[C@@H](O)C[C@H](O[C@H]3[C@@H](O)C[C@H](O[C@H]4CC[C@@]5(C)[C@H](CC[C@@H]6[C@@H]5C[C@@H](O)[C@]5(C)[C@@H](C7=CC(=O)OC7)CC[C@]65O)C4)O[C@@H]3C)O[C@@H]2C)C[C@H](O)[C@@H]1O [Digoxin]
 | Yes | 1.28 |  | 9.4 (po) [51] l/h | O=C1Nc2ccc(Cl)cc2[C@@](C#CC2CC2)(C(F)(F)F)O1 [Efavirenz]
 | No |  |  |  | CCOC(=O)C1=C(C)NC(C)=C(C(=O)OC)C1c1cccc(Cl)c1Cl (centres unmarked) [Felodipine]
 | No |  | No | 21.23 (po) [51] l/h | Cc1cccc(Nc2ccccc2C(=O)O)c1C [Mefenamic acid]
